Patent US20250268897A1, “USE OF HETEROCYCLIC COMPOUND IN TREATING DISEASES RELATED TO KINASE DRUG-RESISTANT MUTATION AND METHOD THEREFOR” (Sichuan Kelun-Biotech Biopharmaceutical Co., Ltd., priority 2021, published 2025)
Blank lines part the entries; values can stand above or below the compound they belong to.

Key:
[1] = biological target: RET-G810R enzyme (Homo sapiens (Human), UniProt P07949, G810R); assay: RET inhibition experiment, HTRF KinEASE-TK kit, RET-G810R; assay type: biochemical; conditions: for IC50: Table 2
[2] = biological target: RET-G810C enzyme (Homo sapiens (Human), UniProt P07949, G810C); assay: RET inhibition experiment, HTRF KinEASE-TK kit, RET-G810C; assay type: biochemical; conditions: for IC50: Table 6
[3] = biological target: RET-G810S enzyme (Homo sapiens (Human), UniProt P07949, G810S); assay: RET inhibition experiment, HTRF KinEASE-TK kit, RET-G810S; assay type: biochemical; conditions: for IC50: Table 4; for Inhibition rate on RET-G810S (%) / inhibition at 0.3 µM: compound concentration 300 nM; for inhibition at 0.3 µM: read-out: Inhibition rate on RET-G810S (%)
[4] = test system: Ba/F3 KIF5B-RET^G810R subcutaneous tumour; assay: In vivo efficacy in BALB/c Nude mouse model with Ba/F3 KIF5B-RET^G810R subcutaneous tumour; conditions: 30 mg/kg, PO, BID × 12; for VP-1 (mm^3, mean ± SEM): tumour volume one day before administration: baseline of the group

Sequence of RET-G810R enzyme (P07949 29-1114 G810R): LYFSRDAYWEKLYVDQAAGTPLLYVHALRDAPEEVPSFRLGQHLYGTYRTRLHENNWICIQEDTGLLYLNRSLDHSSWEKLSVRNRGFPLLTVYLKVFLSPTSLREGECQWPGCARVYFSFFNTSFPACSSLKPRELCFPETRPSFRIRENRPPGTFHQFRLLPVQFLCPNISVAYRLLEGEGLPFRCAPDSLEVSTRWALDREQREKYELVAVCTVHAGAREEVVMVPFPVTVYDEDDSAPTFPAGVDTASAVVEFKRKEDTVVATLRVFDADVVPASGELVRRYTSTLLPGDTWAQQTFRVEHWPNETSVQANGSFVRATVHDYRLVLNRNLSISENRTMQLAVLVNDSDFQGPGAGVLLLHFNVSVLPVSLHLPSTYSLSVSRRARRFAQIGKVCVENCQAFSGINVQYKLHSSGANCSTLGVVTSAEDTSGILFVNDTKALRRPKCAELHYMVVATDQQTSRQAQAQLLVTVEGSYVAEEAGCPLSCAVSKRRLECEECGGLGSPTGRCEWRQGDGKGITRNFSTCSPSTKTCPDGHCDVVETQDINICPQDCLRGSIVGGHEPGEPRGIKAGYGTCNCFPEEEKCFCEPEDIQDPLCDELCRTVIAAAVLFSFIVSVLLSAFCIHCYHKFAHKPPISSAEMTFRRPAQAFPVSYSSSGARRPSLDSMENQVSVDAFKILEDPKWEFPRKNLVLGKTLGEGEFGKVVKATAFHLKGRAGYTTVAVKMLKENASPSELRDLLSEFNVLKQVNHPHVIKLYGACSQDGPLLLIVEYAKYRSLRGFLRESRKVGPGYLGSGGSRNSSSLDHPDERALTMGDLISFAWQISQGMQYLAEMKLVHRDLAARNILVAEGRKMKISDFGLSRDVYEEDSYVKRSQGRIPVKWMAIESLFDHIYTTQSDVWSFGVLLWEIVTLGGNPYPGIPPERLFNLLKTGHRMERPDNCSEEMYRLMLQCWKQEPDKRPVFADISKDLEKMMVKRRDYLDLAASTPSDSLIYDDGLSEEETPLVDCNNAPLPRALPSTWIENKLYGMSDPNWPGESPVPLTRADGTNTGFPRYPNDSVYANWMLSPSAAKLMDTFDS
Sequence of RET-G810S enzyme (P07949 29-1114 G810S): as the sequence (P07949 29-1114 G810R) above, with R782S counted along it
Sequence of RET-G810C enzyme (P07949 29-1114 G810C): as the sequence (P07949 29-1114 G810R) above, with R782C counted along it

Compound: Cc1cc(Nc2cc(C)[nH]n2)nc(-c2ccc(N3CC4CC(C3)N4Cc3ccc(Cl)cn3)nc2)n1 [Compound 3]
Inhibition rate on RET-G810R (%) ([1]; compound concentration 300 nM): 72.49 ± 3.15%

Compound: Cc1cc(Nc2cc(C)[nH]n2)nc(-c2ccc(N3CC4CC(C3)N4Cc3ccc(-n4cc(F)cn4)nc3)nc2)n1 [Compound 18]
IC50 [1]: 132 nM | IC50 [2]: 36.3 nM | IC50 [3]: 15.9 nM

Inhibition rate on RET-G810S (%) [3]: 90.64 ± 0.68%
Compound: Cc1cc(Nc2cc(C)[nH]n2)nc(-c2ccc(N3CC4CC(C3)N4Cc3ccc(-n4ccc(F)n4)cc3)nc2)n1 [Compound 17]

Inhibition rate on RET-G810C (%) ([2]; compound concentration 300 nM): 84.26 ± 6.82%
Compound: Cc1cc(Nc2cc(C)[nH]n2)nc(-c2ccc(N3CC4CC(C3)N4Cc3ccc(-n4ncc(F)c4C4CC4)nc3)nc2)n1 [Compound 22]

Inhibition rate on RET-G810R (%) ([1]; compound concentration 300 nM): 72.78 ± 1.58% | Inhibition rate on RET-G810S (%) [3]: 88.46 ± 2.23%
Compound: Cc1cc(Nc2cc(C)[nH]n2)nc(-c2ccc(N3CC4CC(C3)N4Cc3ccc(-n4cnc(F)c4)nc3)nc2)n1 [Compound 10]

Inhibition rate on RET-G810S (%) [3]: 90.87 ± 1.13%
Compound: Cc1cc(Nc2cc(C)[nH]n2)nc(-c2ccc(N3CC4CC(C3)N4Cc3ccc(-n4nccc4C4CC4)nc3)nc2)n1 [Compound 11]

Compound: Cc1cc(Nc2cc(C)[nH]n2)nc(-c2ccc(N3CC4CC(C3)N4Cc3ccc(-c4ccco4)nc3)nc2)n1 [Compound 29, 2-(6-(6-((6-(furan-2-yl)pyridin-3-yl)methyl)-3,6-diazabicyclo [3.1.1]heptan-3-yl)pyridin-3-yl)-6-methyl-N-(5-methyl-1H-pyrazol-3-yl) pyrimidin-4-amine]
inhibition at 0.3 µM [3]: 93.21 ± 0.91%

Inhibition rate on RET-G810S (%) [3]: 83.73 ± 3.16%
Compound: Cc1cc(Nc2cc(C)[nH]n2)nc(-c2ccc(N3CC4CC(C3)N4Cc3ccc(-n4ccc(F)n4)nc3)nc2)n1 [Compound 8]

Compound: Cc1cc(Nc2cc(C)[nH]n2)nc(-c2ccc(N3CC4CC(C3)N4Cc3ccc(-n4cccn4)nc3)nc2)n1 [Compound 5]
IC50 [1]: 185 nM | Inhibition rate on RET-G810S (%) [3]: 97.89 ± 0.57%

Compound: Cc1cc(Nc2cc(C)[nH]n2)nc(-c2ccc(N3CC4CC(C3)N4Cc3ccc(-n4cc(F)c(C(C)(C)O)n4)nc3)nc2)n1.O=C(O)/C=C/C(=O)O [Compound 30-A, Fumarate of 2-(4-fluoro-1-(5-((3-(5-(4-methyl-6-((5-methyl-1H-pyrazol-3-yl)amino)pyrimidin-2-yl)pyridin-2-yl)-3,6-diazabicyclo [3.1.1]heptan-6-yl)methyl)pyridin-2-yl)-1H-pyrazol-3-yl) propan-2-ol]
IC50 [2]: 125 nM | Inhibition rate on RET-G810S (%) [3]: 99.01 ± 0.15%

Inhibition rate on RET-G810S (%) [3]: 91.80 ± 0.98%
Compound: Cc1cc(Nc2cc(C)[nH]n2)nc(-c2ccc(N3CC4CC(C3)N4Cc3ccc(-n4cc(F)cn4)cc3)nc2)n1 [Compound 7]

Inhibition rate on RET-G810R (%) ([1]; compound concentration 300 nM): 69.44 ± 0.31% | Inhibition rate on RET-G810C (%) ([2]; compound concentration 300 nM): 69.10 ± 5.56% | Inhibition rate on RET-G810S (%) [3]: 99.19 ± 0.55%
Compound: Cc1cc(Nc2cc(C)[nH]n2)nc(-c2ccc(N3CC4CC(C3)N4Cc3ccc(-n4cc(C)c(C)n4)nc3)nc2)n1 [Compound 12]

Inhibition rate on RET-G810C (%) ([2]; compound concentration 300 nM): 86.86 ± 1.73% | Inhibition rate on RET-G810S (%) [3]: 96.67 ± 0.03%
Compound: Cc1cc(Nc2cc(C)[nH]n2)nc(-c2ccc(N3CC4CC(C3)N4Cc3ccc(-n4ncc(F)c4C)nc3)nc2)n1 [Compound 20]

Compound: Cc1cc(Nc2cc(C)[nH]n2)nc(-c2ccc(N3CC4CC(C3)N4Cc3cnc(-n4cc(F)cn4)cn3)nc2)n1 [Compound 31, 2-(6-(6-((5-(4-fluoro-1H-pyrazol-1-yl)pyrazin-2-yl)methyl)-3,6-diazabicyclo [3.1.1]hept-3-yl)pyridin-3-yl)-6-methyl-N-(5-methyl-1H-pyrazol-3-yl) pyrimidin-4-amine]
inhibition at 0.3 µM ([2]; compound concentration 300 nM, read-out: Inhibition rate on RET-G810C (%)): 74.1 ± 1.28% | inhibition at 0.3 µM [3]: 99.69 ± 0.14%

Compound: Cc1cc(Nc2cc(C)[nH]n2)nc(-c2ccc(N3CC4CC(C3)N4Cc3ccc(-c4ccc(F)[nH]4)nc3)nc2)n1 [Compound 27]
Inhibition rate on RET-G810C (%) ([2]; compound concentration 300 nM): 82.66 ± 2.47% | IC50 [3]: 23.1 nM

Compound: Cc1cc(Nc2cc(C)[nH]n2)nc(-c2ccc(N3CC4CC(C3)N4Cc3ccc(-n4ccc(C5CC5)n4)cc3)nc2)n1 [Compound 15, 2-(6-(6-(4-(3-cyclopropyl-1H-pyrazol-1-yl)benzyl)-3,6-diazabicyclo [3.1.1]heptan-3-yl)pyridin-3-yl)-6-methyl-N-(5-methyl-1H-pyrazol-3-yl) pyrimidin-4-amine]
inhibition at 0.3 µM [3]: 97.22 ± 0.39%

Inhibition rate on RET-G810R (%) ([1]; compound concentration 300 nM): 77.16 ± 3.87% | Inhibition rate on RET-G810S (%) [3]: 83.01 ± 1.42%
Compound: Cc1cc(Nc2cc(C)[nH]n2)nc(-c2ccc(N3CC4CC(C3)N4Cc3ccc(-n4cccn4)cc3)nc2)n1 [Compound 6]

Compound: Cc1cc(Nc2cc(C)[nH]n2)nc(-c2ccc(N3CC4CC(C3)N4Cc3ccc(-c4ccc[nH]4)nc3)nc2)n1 [Compound 21]
IC50 [2]: 173 nM | IC50 [3]: 6.61 nM

Compound: Cc1cc(Nc2cc(C)[nH]n2)nc(-c2ccc(N3CC4CC(C3)N4Cc3ccc(-n4nccc4C4CC4)cc3)nc2)n1 [Compound 14, 2-(6-(6-(4-(5-cyclopropyl-1H-pyrazol-1-yl)benzyl)-3,6-diazabicyclo [3.1.1]heptan-3-yl)pyridin-3-yl)-6-methyl-N-(5-methyl-1H-pyrazol-3-yl) pyrimidin-4-amine]
inhibition at 0.3 µM [3]: 92.56 ± 0.08%

Inhibition rate on RET-G810S (%) [3]: 97.26 ± 0.72%
Compound: Cc1cc(Nc2cc(C)[nH]n2)nc(-c2ccc(N3CC4CC(C3)N4Cc3ccc(-c4ccn[nH]4)nc3)nc2)n1 [Compound 25]

Compound: CO[C@]1(C(=O)N[C@@H](C)c2ccc(-n3cc(F)cn3)nc2)CC[C@H](c2nc(C)cc(Nc3cc(C)[nH]n3)n2)CC1 [BLU-667, Pralsetinib]
TGI (%) tumour growth inhibition rate [4]: 29.78% | VP12 (mm^3, mean ± SEM): tumour volume on Day 12 of administration [4]: 552.89 ± 29.7 mm^3 | VP-1 (mm^3, mean ± SEM): tumour volume one day before administration [4]: 101.82 ± 5.93 mm^3

Compound: COc1ccc(CN2C3CC2CN(c2ccc(-c4cc(OCC(C)(C)O)cn5ncc(C#N)c45)cn2)C3)cn1 [LOXO-292, Selpercatinib]
TGI (%) tumour growth inhibition rate [4]: 2.69% | VP12 (mm^3, mean ± SEM): tumour volume on Day 12 of administration [4]: 725.55 ± 54.84 mm^3 | VP-1 (mm^3, mean ± SEM): tumour volume one day before administration [4]: 100.47 ± 4.52 mm^3

Inhibition rate on RET-G810R (%) ([1]; compound concentration 300 nM): 78.98 ± 0.24% | Inhibition rate on RET-G810S (%) [3]: 98.89 ± 0.18%
Compound: Cc1cnn(-c2ccc(CN3C4CC3CN(c3ccc(-c5nc(C)cc(Nc6cc(C)[nH]n6)n5)cn3)C4)cn2)c1 [Compound 4]

Compound: Cc1cc(Nc2cc(C)[nH]n2)nc(-c2ccc(N3CC4CC(C3)N4Cc3ccc(-n4cc(Cl)cn4)nc3)nc2)n1 [Compound 9, 2-(6-(6-((6-(4-chloro-1H-pyrazol-1-yl)pyridin-3-yl)methyl)-3,6-diazabicyclo [3.1.1]heptan-3-yl)pyridin-3-yl)-6-methyl-N-(5-methyl-1H-pyrazol-3-yl) pyrimidin-4-amine]
inhibition at 0.3 µM ([1]; compound concentration 300 nM, read-out: Inhibition rate on RET-G810R (%)): 78.6 ± 4.5% | inhibition at 0.3 µM [3]: 97.64 ± 0.19%

Inhibition rate on RET-G810S (%) [3]: 97.21 ± 1.01%
Compound: Cc1cc(Nc2cc(C)[nH]n2)nc(-c2ccc(N3CC4CC(C3)N4Cc3ccc(-n4cc(F)cn4)nc3)nc2)c1 [Compound 13]

Compound: Cc1cc(Nc2cc(C)[nH]n2)nc(-c2ccc(N3CC4CC(C3)N4Cc3ccc(-n4ccc(C(C)(C)O)n4)nc3)nc2)n1 [Compound 24, 2-(1-(5-((3-(5-(4-methyl-6-((5-methyl-1H-pyrazol-3-yl)amino)pyrimidin-2-yl)pyridin-2-yl)-3,6-diazabicyclo [3.1.1]heptan-6-yl)methyl)pyridin-2-yl)-1H-pyrazol-3-yl) propan-2-ol]
IC50 [3]: 57.2 nM

Inhibition rate on RET-G810S (%) [3]: 97.83 ± 0.32%
Compound: Cc1cc(Nc2cc(C)[nH]n2)nc(-c2ccc(N3CC4CC(C3)N4Cc3ccc(-c4cscn4)nc3)nc2)n1 [Compound 26]

Inhibition rate on RET-G810C (%) ([2]; compound concentration 300 nM): 82.80 ± 3.66% | Inhibition rate on RET-G810S (%) [3]: 80.98 ± 7.32%
Compound: Cc1cc(Nc2cc(C)[nH]n2)nc(-c2ccc(N3CC4CC(C3)N4Cc3ccc(-n4nccc4OC4CC4)nc3)nc2)n1 [Compound 19]

Compound: Cc1cc(Nc2cc(C)[nH]n2)nc(-c2ccc(N3CC4CC(C3)N4Cc3ccc(-n4nc(F)cc4C)nc3)nc2)n1 [Compound 28, 2-(6-(6-((6-(3-fluoro-5-methyl-1H-pyrazol-1-yl)pyridin-3-yl)methyl)-3,6-diazabicyclo [3.1.1]heptan-3-yl)pyridin-3-yl)-6-methyl-N-(5-methyl-1H-pyrazol-3-yl) pyrimidin-4-amine]
inhibition at 0.3 µM [3]: 90.8 ± 1.24%

Inhibition rate on RET-G810R (%) ([1]; compound concentration 300 nM): 70.41 ± 4.57%
Compound: Cc1ccc(CN2C3CC2CN(c2ccc(-c4nc(C)cc(Nc5cc(C)[nH]n5)n4)cn2)C3)cc1 [Compound 2]

Inhibition rate on RET-G810S (%) [3]: 85.27 ± 0.37%
Compound: Cc1cc(Nc2cc(C)[nH]n2)nc(-c2ccc(N3CC4CC(C3)N4Cc3ccc(-c4ccc(C)o4)nc3)nc2)n1 [Compound 16]
